The results in this text go back to ChEMBL document CHEMBL3758090, “Investigation of α-conotoxin unbinding using umbrella sampling” (Bioorg Med Chem Lett, 2016).

The target of the assay is T1, Soluble acetylcholine receptor (Aplysia californica, UniProt Q8WSF8).
T1 sequence (Q8WSF8 whole entry): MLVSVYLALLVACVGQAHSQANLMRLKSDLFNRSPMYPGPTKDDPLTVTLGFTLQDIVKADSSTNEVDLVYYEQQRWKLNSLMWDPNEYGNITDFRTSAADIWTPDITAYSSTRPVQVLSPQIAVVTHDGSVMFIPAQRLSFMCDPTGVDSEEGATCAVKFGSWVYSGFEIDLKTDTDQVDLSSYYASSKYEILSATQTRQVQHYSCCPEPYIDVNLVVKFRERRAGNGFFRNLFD
Kind of assay: Displacement [125I]alpha-bungarotoxin from untagged Aplysia californica AChBP expressed in Sf9 cells by competitive binding assay.

pIC50: −log10 of the molar value. Positions of bridges follow the written chain, without caps; N, C: chain ends. Residues, ends and D or L forms follow the SMILES beside them.

Usually pIC50 stands for the negative decadic logarithm of the IC50, by convention in mol/L. Low values mean a large IC50, high ones a small IC50. Compound `CC(C)C[C@@H]1NC(=O)[C@H](C)NC(=O)[C@@H]2CSSC[C@H](NC(=O)CN)C(=O)N[C@@H](CSSC[C@@H](C(=O)O)NC(=O)[C@H](Cc3ccc(O)cc3)NC(=O)[C@H](CCCCN)NC(=O)[C@@H]3CCCN3C(=O)[C@H](CC(N)=O)NC(=O)[C@H](CC(N)=O)NC1=O)C(=O)N[C@@H](CO)C(=O)N[C@@H](CC(C)C)C(=O)N1CCC[C@H]1C(=O)N1CCC[C@H]1C(=O)N2` (H-GCCSLPPCALNNPKYC-OH; disulfide 2-8, 3-16) gave a pIC50 of 7.55.
